According to patent US10023615B2, “Efficient transport into white blood cells” (priority 2008, dated 2018):
Square brackets hold non-standard residues; d marks the D form. Ends that are not written are not given here.

Experiments:
[1] = tested on: HL-60 cell line (Leukemia); assay: Time dependant internalization of FITC-labeled TAT derived transporter constructs into HL-60 cells; assay type: cell-based; conditions: 10 μM; 30 min, 1, 6 or 24 hours
Protocol: FIG. 3: depicts the results of the time dependant internalization (uptake) of FITC-labeled TAT derived transporter constructs into cells of the HL-60 cell line. […] HL-60 cells were incubated 30 min, 1, 6 or 24 hours with […] of the TAT-derivative transporters. The cells were then washed twice with an acidic buffer (0.2 M Glycin, 0.15 M NaCl, pH 3.0) and twice with PBS. Cells were broken by the addition of RIPA lysis buffer. The relative amount of internalized peptide was then determined by reading the fluorescence intensity (Fusion Alpha plate reader; PerkinElmer) of each extract followed by background substraction and protein content normalization. […]

U937 lymphoma cells = assay: Uptake (internalization) of FITC-labeled TAT derived transporter constructs in U937 cells, fluorescence plate reader; assay type: cell-based; conditions: 10 μM, U937, Lymphoma, 24 h
Protocol: Cells were plated into poly-DL-lysine coated dishes at a concentration of 1×10^6 cells/ml. Plates were then incubated for 24 h at 37° C., 5% CO2, and 100% relative humidity prior to the addition of a known concentration of peptide. After peptide addition, the cells were incubated 30 min, 1, 6 or 24 h at 37° C., 5% CO2, and 100% relative humidity. Cells were then washed twice with an acidic buffer (Glycin 0.2 M, NaCl 0.15 M, pH 3.0) in order to remove the cell-surface adsorbed peptide (see Kameyama et al., (2007), Biopolymers, 88, 98-107). […] The cell wash using an acidic buffer was thus employed to remove the cell-surface adsorbed peptides. […] Cells were broken by the addition of the RIPA lysis buffer. The relative amount of internalized peptide was then determined by fluorescence after background substraction and protein content normalization. • The steps are thus: 1. […] Analysis of peptide internalization with a fluorescence plate reader • f) Cell Culture and Peptide Treatment • (1) The 6 well culture plates are coated with 3 ml of Poly-D-Lys (Sigma P9011; 25 μg/ml in PBS), the 24 well plates with 600 μl and the 96 well plates with 125 μl and incubated for 4 h at 37° C., CO2 5% and 100% relative humidity. • (2) After 4 hours the dishes were washed twice with 3.5 ml PBS, 700 μl or 150 μl PBS for the 6, 24 or 96 well plates, respectively. • (3) The cells were plated into the dishes in 2.4 ml medium (RPMI) at plating densities of 1′000′000 cells/ml for suspension cells. After inoculation, the plates were incubated at 37° C., 5% CO2 and 100% relative humidity for 24 hours prior to the addition of the peptide. Adherent cells should be at a density of 90-95% the day of treatment and were plated in DMEM :
• (4) The cells were treated with the desired concentration of FITC labeled peptide (stock solution at a concentration of 10 mM in H2O). • (5) Following peptide addition, the cells were incubated 0 to 24 hours (e.g. 30 min, 1, 6 or 24 hours) at 37° C., CO2 5% and 100% relative humidity. • Acidic Wash and Cellular Extracts: • (6) The extracts were cooled on ice. • Suspension cells (or cells, which don attach well to the dish): • Transfer the cells in ? […] To recover the maximum of cells, wash the dish with 1 ml of PBS. • Harvest the cells 2 min at 2400 rpm max. • Suspend the cells in 1 ml cold PBS. • Transfer the cells into a coated “Eppendorf tube” (coated with 1 ml of poly D-Lys for 4 hours and washed twice with 1 ml PBS). • Wash three times with 1 ml of cold acidic wash buffer and centrifuge 2 min at 2400 rpm max. Beware of the spreading of the cells in the “eppendorf”. • Wash twice with 1 ml cold PBS to neutralize. • Add 50 μl of lysis RIPA Buffer. • Incubate 30 min-1 h on ice with agitation. • Adherent Cells: • Wash three times with 3 ml, 1 ml or 200 μl (for 6, 24 or 96 well plates, respectively) of cold acidic wash buffer. Beware of the cells who detach from the dish. • Wash twice with 1 ml cold PBS (for 6, 24 or 96 well plates, respectively) to neutralize. • Add 50 μl of lysis RIPA buffer. • Incubate 30 min-1 h on ice with agitation. • Scrap the cells with a cold scrapper. The 24 and 96 well plates were directly centrifuged at 4000 rpm at 4° for 15 min to remove the cellular debris. Then the supernatants (100 or 50 ml respectively for the 24 or 96 well plates) were directly transferred in a dark 96 well plated.

[2] = tested on: dissociated cortical primary neurons; assay: Confocal microscopy of FITC-labeled TAT derivative transporters in cortical primary neurons; assay type: cell-based, rat; conditions: 500 nM, 24 hours
Protocol: 8.4 Internalization Experiments and Analysis • The time dependant internalization (uptake) of FITC-labeled TAT derived transporter constructs into cells of the HL-60 cell line was carried out with materials and methods as described above. • Briefly, HL-60 cells were incubated 30 min, 1, 6 or 24 hours with 10 μM of the TAT-derivative transporters. The cells were then washed twice with an acidic buffer (0.2 M Glycin, 0.15 M NaCl, pH 3.0) and twice with PBS. Cells were broken by the addition of RIPA lysis buffer. The relative amount of internalized peptide was then determined by reading the fluorescence intensity (Fusion Alpha plate reader; PerkinElmer) of each extract followed by background substraction and protein content normalization. […] The dissociated cortical primary neurons from P2 Sprague Dawley rats were cultured 12 days in neurobasal medium before exposure 24 hours to 500 nM of the FITC-labeled • TAT derivative transporters. The cells were washed five times with PBS on ice and then mounted in fluorsave mounting medium without prior fixation. Acquisitions were performed on LSM510 metaconfocal microscope (Zeiss). Images were processed with LSM510 software and mounted using Adobe photoshop. Visualization by confocal microscopy of labeling with 500 nM FITC-transporters (A: green). Nuclei were stained by Hoechst (B: blue).

[3] = tested on: Kupffer cells (CD-14 positive cells) of the liver; assay: Liver cell localization of FITC-D-TAT after i.v. injection; assay type: in vivo, mouse; conditions: 0.1 mg/kg i.v.
Protocol: FIG. 5: (A): Primary cultured macrophages were incubated with XG-102 (SEQ ID NO: 233) and extensively washed. […] (B): Mice were injected i.v. with 0.1 mg/kg FITC-D-TAT (SEQ ID NO: 4 plus FITC) and were sacrificed 24 hours later with PAF perfusion through the heart. Slices were obtained after cryoprotection using cryostat.
Mice were injected i.v. with 0.1 mg/kg of FITC-D-TAT (SEQ ID NO: 4) and were sacrificed by perfusion 24 h later. Liver was removed, cryoprotected and cut into slices with a cryostat. D-TAT was directly visualized via FITC fluorescence and cell nuclei were labeled with Hoechst dye. Hepatocytes are big cells (89% of liver cells) that display a large nucleus, whereas Kupffer cells (resident macrophages of the liver) represent approximately 10% of the cells and are small and thin, elongated cells with small nucleus.

liver and lymph nodes = assay: FITC-XG-102 and FITC-D-TAT localization in liver and lymph nodes; assay type: in vivo, Sprague Dawley rat; conditions: 1 mg/kg i.v., 6 h post-injection
Excerpt: FIG. 22A and FIG. 22B: 22A: FITC-XG-102 (SEQ ID NO: 233) localization in the liver. Three cellular fields of FITC-XG-102-labelled cells isolated from liver. From left to right, FITC-labelled XG-102, corresponding DAPI nuclear stain and merge of both images. […] Typicall Kupfer cell shape and nucleus can be differentiated from hepatocytes by their shape. Small and triangle in Kupfer cells in contrast to big exagonal, well organized hepatocytes. Obj 63; bar, 20 μm. 22B: FITC-D-TAT (SEQ ID NO: 4) localization in the liver. Two cellular fields of FITC-D-TAT-labelled cells isolated from liver. From left to right, FITC-labelled XG-102, corresponding DAPI nuclear stain and merge of both images. […] Typicall Kupfer cell shape and nucleus can be differentiated from hepatocytes by their shape. Small and triangle in Kupfer cells in contrast to big exagonal, well organized hepatocytes. Obj 63; bar, 20 μm.
(§1) FIG. 23A and FIG. 23B: 23A: FITC-XG-102 (SEQ ID NO: 233) localization in lymph nodes. Cellular field of FITC-XG-102-labelled cells isolated from lymph nodes. Upper panels from left to right: the composite image is organized with one cellular field stained with FITC-XG-102 (left), Dapi for nuclear stain (middle) and the corresponding merged image (right). In the lower panels, a zoomed cell cluster of each image is illustrated. […] The absence of FITC staining in the lymphoid follicles allows distinguishing from the medullary corde and cortex area. Medullary zone seems to have incorporated the FITC-XG-102, composed in majority by macrophages. Obj 10; bar, 50 μm.
as §1, with “23B:” for “FIG. 23A and FIG. 23B:”, “FITC-D-TAT” for “23A: FITC-XG-102”, “4)” for “233)”, “FITC-D-TAT-labelled” for “FITC-XG-102-labelled”, “FITC-D-TAT” for “FITC-XG-102”, “FITC-D-TAT,” for “FITC-XG-102,”
Female Sprague Dawley rat was injected i.v. in the tail with either 1 mg/kg of FITC-XG102 (SEQ ID NO:233) or 1 mg/kg FITC-D-TAT (SEQ ID NO:4). Rats were sacrified 6 h post-injection using a lethal dose of sodium pentobarbital (150 mg/kg i.p.). For histological analysis and during narcosis, rats were perfused through the heart with 4% paraformaldehyde (PFA) in PBS. Organs (liver and lymph nodes) were cryoprotected in sucrose (30% in PBS), frozen using liquid isopentane and kept for further cryostat sectioning. Sections of 14 μm were incubated for 5 min in PBS before Hoechst staining for 2 min at RT (1 μg/ml). […]

Lymphocytes B (CD19) = assay: Flow cytometry of FITC-transporter content in primary human white blood cells: lymphocytes B; assay type: cell-based; conditions: 1 uM, 30 min
Excerpt: (§2) Primary human white blood cells (WBC) were obtained from whole blood after red blood cell lysis. […] Cells containing D-TAT-FITC and r3-L-TAT-FITC were finally analysed by flow cytometry to measure their respective transporter content.

U937 cells = assay: Intracellular concentration of transporter constructs subsequent to uptake into U937 cells; assay type: cell-based; conditions: U937 cells, 10 μM construct
Protocol: 9. Determination of Intracellular Concentration of Specific Transporter Constructs Subsequent to Uptake (Internalization) of these Peptides into U937 Cells • According to a further experiment, the concentration of specific transporter constructs subsequent to uptake (internalization) of these peptides into U937 cells were determined.

Lymphocytes T (CD3) = assay: Flow cytometry of FITC-transporter content in primary human white blood cells: lymphocytes T; assay type: cell-based; conditions: 1 uM, 30 min
Excerpt: as §2

Monocytes (CD14) = assay: Flow cytometry of FITC-transporter content in primary human white blood cells: monocytes; assay type: cell-based; conditions: 1 uM, 30 min
Excerpt: as §2

Neutrophils (CD15) = assay: Flow cytometry of FITC-transporter content in primary human white blood cells: neutrophils; assay type: cell-based; conditions: 1 uM, 30 min
Excerpt: as §2

Compound	time dependant internalization (uptake) [1]	uptake (internalization) (U937 lymphoma cells)	internalization seen by confocal microscopy [2]	cell type of accumulation in liver ([3]; 24 h)	colocalization with CD-14 positive cells in liver ([3]; 24 hours)	localization in lymph nodes (liver and lymph nodes)	localization in the liver (liver and lymph nodes)	binding to cell population (Lymphocytes B (CD19))	intracellular concentration of transporter construct subsequent to uptake (U937 cells; 2 h)	intracellular concentration of transporter construct subsequent to uptake (U937 cells; 4 h)	intracellular concentration of transporter construct subsequent to uptake (U937 cells; 6 h)	intracellular concentration of transporter construct subsequent to uptake (U937 cells; 24 h)	binding to cell population (Lymphocytes T (CD3))	binding to cell population (Monocytes (CD14))	binding to cell population (Neutrophils (CD15))
rRRQrRKKr [r3-L-TATi]	less efficient but still suitable	most efficient	internalized into the cytoplasm of the non stressed neurons	–	–	–	–	–	–	–	–	–	–	–	–
N=C(N)NCCC[C@@H](NC(=O)[C@@H](CCCCN)NC(=O)[C@@H](CCCCN)NC(=O)[C@@H](CCCNC(=N)N)NC(=O)[C@@H](CCCNC(=N)N)NC(=O)[C@@H](CCC(N)=O)NC(=O)[C@@H](CCCNC(=N)N)NC(=O)[C@@H](CCCNC(=N)N)NC(=O)[C@@H](CCCNC(=N)N)NC(=O)CCNC(=S)Nc1ccc2c(c1)C(=O)OC21c2ccc(O)cc2Oc2cc(O)ccc21)C(N)=O [FITC-D-TAT, FITC-βA-rrrqrrkkr]	–	–	–	accumulates predominantly in Kupffer cells	colocalization between FITC-D-TAT labelled-cells and CD-14 positive cells	decorates subcapsular sinus macrophages and constitutive migrating alveolar macrophages	efficiently decorates Kupfer cells in contrast to hepatocytes which only show a background staining level	–	–	–	–	–	–	–	–
rKKRrQRRr ([dR]KKR[dR]QRR[dR]) [r3-L-TAT]	as effective as the D-TAT transporter construct	most efficient	internalized into the cytoplasm of the non stressed neurons	–	–	–	–	less efficiently to lymphocyte B cells	2.34	3.16	3.56	11.2	binds to monocytes, neutrophils and lymphocyte T cells	binds to monocytes, neutrophils and lymphocyte T cells	binds to monocytes, neutrophils and lymphocyte T cells
